Experimental data: PMC8286840, “Identifying SARS-CoV-2 antiviral compounds by screening for small molecule inhibitors of Nsp3 papain-like protease” (Biochemical Journal, 2021)
Counter-ions that a name gives are not always drawn. Like-named read-outs stand apart in the source and are kept apart here.

Key:
[1] = molecular target: T1, SARS-CoV-2 PLpro (nsp3 1564–1878) (Severe acute respiratory syndrome coronavirus 2, UniProt P0DTD1); assay: biochemical; design: FRET-quenched peptide (Pro3) cleavage by PLpro, 10 min pre-incubation, slope over 20 min, normalised to no-compound control; conditions: high concentration screen, read-out: % of control remaining
[2] = molecular target: T1, SARS-CoV-2 PLpro (nsp3 1564–1878); assay: biochemical; design: FRET-quenched peptide (Pro3) cleavage by PLpro, 10 min pre-incubation, slope over 20 min, normalised to no-compound control; conditions: low concentration screen, read-out: % of control remaining

## O=c1cc(-c2ccc(O)c(O[C@@H]3O[C@H](CO)[C@@H](O)[C@H](O)[C@H]3O)c2)oc2cc(O[C@@H]3O[C@H](CO)[C@@H](O)[C@H](O)[C@H]3O)cc(O)c12 [Luteolin-3',7-diglucoside]
[1]; Well no.=3309
  remaining activity at 3.75 µM: 95.6%
[2]; Well no.=3309
  remaining activity at 1.25 µM: 97.1%

## O=C1CCC(N2C(=O)c3ccccc3C2=O)C(=O)N1 (racemic)
[1]; Well no.=1282
  remaining activity at 3.75 µM: 105%
[2]; Well no.=1282
  remaining activity at 1.25 µM: 107%

## COc1c(O[C@@H]2O[C@H](CO)[C@@H](O)[C@H](O)[C@H]2O)cc2oc(-c3ccc(O)cc3)cc(=O)c2c1O [Homoplantaginin]
[1]; Well no.=6446
  remaining activity at 3.75 µM: 95.8%
[2]; Well no.=6446
  remaining activity at 1.25 µM: 94.1%

## O=C1O/C(=C/Br)CCC1c1cccc2ccccc12 (stereo not shown) [Bromoenol lactone]
[1]; Well no.=310
  remaining activity at 3.75 µM: 96.9%
[2]; Well no.=310
  remaining activity at 1.25 µM: 93%

## CCCCC[C@H](O)/C=C/[C@H]1C=CC(=O)[C@@H]1CCCCCCC(=O)O [Prostaglandin A1]
[1]; Well no.=3086
  remaining activity at 3.75 µM: 101%
[1]; Well no.=4235
  remaining activity at 3.75 µM: 94.9%
[2]; Well no.=3086
  remaining activity at 1.25 µM: 99.1%
[2]; Well no.=4235
  remaining activity at 1.25 µM: 89.4%

## NC[C@H]1CC[C@H](C(=O)O)CC1 [Tranexamic acid]
[1]; Well no.=1816
  remaining activity at 3.75 µM: 99.8%
[2]; Well no.=1816
  remaining activity at 1.25 µM: 97.3%

## O=Cc1c2[nH]c3ccccc3c2cc2[nH]c3ccccc3c12 [6-Formylindolo [3,2-B] carbazole]
[1]; Well no.=4507
  remaining activity at 3.75 µM: 97.6%
[2]; Well no.=4507
  remaining activity at 1.25 µM: 90.7%

## Cc1cc2c(s1)Nc1ccccc1N=C2N1CCN(C)CC1 [Olanzapine]
[1]; Well no.=1828
  remaining activity at 3.75 µM: 95.2%
[1]; Well no.=8193
  remaining activity at 3.75 µM: 111%
[2]; Well no.=1828
  remaining activity at 1.25 µM: 93.3%
[2]; Well no.=8193
  remaining activity at 1.25 µM: 106%

## COc1ccc2cc(OCC3(C(=O)O)CN(C(=O)c4ccc(F)cc4)C3)ccc2c1 [PF-04418948]
[1]; Well no.=7197
  remaining activity at 3.75 µM: 87.9%
[2]; Well no.=7197
  remaining activity at 1.25 µM: 89.6%

## CO[C@H]1CC=C2CCN3CCC4=C(CC(=O)OC4)[C@]23C1 [Dihydro-beta-erythroidine hydrobromide]
[1]; Well no.=690
  remaining activity at 3.75 µM: 88.6%
[2]; Well no.=690
  remaining activity at 1.25 µM: 88.8%

## C=C[C@H]1CN2CC[C@H]1C[C@H]2[C@H](O)c1ccnc2ccc(OC)cc12 [Quinine sulfate]
[1]; Well no.=1459
  remaining activity at 3.75 µM: 100%
[2]; Well no.=1459
  remaining activity at 1.25 µM: 98.4%

## Oc1ccc(-c2nc(-c3ccc(F)cc3)c(-c3ccncc3)[nH]2)cc1 [SB 202190]
[1]; Well no.=2614
  remaining activity at 3.75 µM: 95.5%
[2]; Well no.=2614
  remaining activity at 1.25 µM: 95%

## CCc1c(C)[nH]c2c1C(=O)C(CN1CCOCC1)CC2 (stereo not shown) [Molindone (hydrochloride)]
[1]; Well no.=6905
  remaining activity at 3.75 µM: 93.3%
[1]; Well no.=7928
  remaining activity at 3.75 µM: 98.2%
[2]; Well no.=6905
  remaining activity at 1.25 µM: 98.8%
[2]; Well no.=7928
  remaining activity at 1.25 µM: 95.5%

## CC(C)[C@H](N)C(=O)N1CCC[C@H]1C(=O)N1CCC[C@H]1C(=O)O [H-Val-Pro-Pro-OH (TFA)]
[1]; Well no.=7546
  remaining activity at 3.75 µM: 100%
[2]; Well no.=7546
  remaining activity at 1.25 µM: 100%

## O=C(c1ccc(F)cc1)C1CCN(CCn2c(=O)[nH]c3ccccc3c2=O)CC1 [Ketanserin]
[1]; Well no.=2106
  remaining activity at 3.75 µM: 95.2%
[1]; Well no.=6859
  remaining activity at 3.75 µM: 99%
[2]; Well no.=2106
  remaining activity at 1.25 µM: 94.1%
[2]; Well no.=6859
  remaining activity at 1.25 µM: 101%

## C[N+](C)(C)CCOP(=O)(O)OP(=O)([O-])OC[C@H]1O[C@@H](n2ccc(N)nc2=O)[C@H](O)[C@@H]1O [Citicoline]
[1]; Well no.=8931
  remaining activity at 3.75 µM: 88.7%
[2]; Well no.=8931
  remaining activity at 1.25 µM: 89%

## Cn1c(=O)c(-c2c(Cl)cccc2Cl)cc2cnc(Nc3ccc(N4CCOCC4)cc3)nc21 [PD173952]
[1]; Well no.=5415
  remaining activity at 3.75 µM: 108%
[2]; Well no.=5415
  remaining activity at 1.25 µM: 103%

## C[N+](C)(C)CCCCCC[N+](C)(C)C [Hexamethonium dichloride]
[1]; Well no.=656
  remaining activity at 3.75 µM: 89.9%
[2]; Well no.=656
  remaining activity at 1.25 µM: 90.7%

## CCCN1CCC[C@H](c2cccc(O)c2)C1 [R(+)-3PPP hydrochloride]
[1]; Well no.=1261
  remaining activity at 3.75 µM: 107%
[2]; Well no.=1261
  remaining activity at 1.25 µM: 105%

## COc1cc(C(=O)OCCCN2CCCN(CCCOC(=O)c3cc(OC)c(OC)c(OC)c3)CC2)cc(OC)c1OC [Dilazep]
[1]; Well no.=1931
  remaining activity at 3.75 µM: 99.9%
[2]; Well no.=1931
  remaining activity at 1.25 µM: 100%

## NC(=O)N1c2ccccc2C=Cc2ccccc21 [Carbamazepine]
[1]; Well no.=270
  remaining activity at 3.75 µM: 94.9%
[1]; Well no.=2215
  remaining activity at 3.75 µM: 95.8%
[2]; Well no.=270
  remaining activity at 1.25 µM: 96.8%
[2]; Well no.=2215
  remaining activity at 1.25 µM: 97.8%

## COc1ccc2c(c1)c(CC(=O)OCC(=O)O)c(C)n2C(=O)c1ccc(Cl)cc1 [Acemetacin]
[1]; Well no.=2037
  remaining activity at 3.75 µM: 97.7%
[2]; Well no.=2037
  remaining activity at 1.25 µM: 99.2%

## Nc1ncnc2c1c(-c1cnc3[nH]ccc3c1)nn2C1CCCC1 [PP-121]
[1]; Well no.=4958
  remaining activity at 3.75 µM: 92.2%
[2]; Well no.=4958
  remaining activity at 1.25 µM: 91%

## Cc1cc(N2C[C@@H](C)N[C@@H](C)C2)ncc1-c1ccc(-c2nc3c(ccn3C)c(=O)[nH]2)cc1 [AZ6102]
[1]; Well no.=8482
  remaining activity at 3.75 µM: 96.4%
[2]; Well no.=8482
  remaining activity at 1.25 µM: 97.8%

## CN(C)CCCN1c2ccccc2Sc2ccc(Cl)cc21 [Chlorpromazine.HCl]
[1]; Well no.=1596
  remaining activity at 3.75 µM: 103%
[2]; Well no.=1596
  remaining activity at 1.25 µM: 104%

## C#C[C@]1(O)CC[C@H]2[C@@H]3CCC4=CC(=O)CCC4=C3C=C[C@@]21CC [Gestrinone]
[1]; Well no.=1792
  remaining activity at 3.75 µM: 99.3%
[2]; Well no.=1792
  remaining activity at 1.25 µM: 101%

## CCN1CCN(C(=O)Cc2ccc(Nc3ncc(F)c(Nc4ccc(C(=O)Nc5ccccc5Cl)cc4)n3)cc2)CC1 [Aurora A Inhibitor I]
[1]; Well no.=5241
  remaining activity at 3.75 µM: 102%
[2]; Well no.=5241
  remaining activity at 1.25 µM: 95.1%

## O=c1ccccn1CC1(O)CCN(Cc2ccccc2)CC1 [YL0919]
[1]; Well no.=8009
  remaining activity at 3.75 µM: 98.2%
[2]; Well no.=8009
  remaining activity at 1.25 µM: 101%

## NC(=O)CN1CC(O)CC1=O (stereo not shown) [Oxiracetam]
[1]; Well no.=1040
  remaining activity at 3.75 µM: 97.5%
[2]; Well no.=1040
  remaining activity at 1.25 µM: 91.2%

## COc1ccc2c(c1)CC[C@@H]1[C@@H]2CC[C@]2(C)[C@@H](NCCCCCCN3C(=O)CCC3=O)CC[C@@H]12 [U-73343]
[1]; Well no.=1380
  remaining activity at 3.75 µM: 102%
[2]; Well no.=1380
  remaining activity at 1.25 µM: 101%

## O=C1Nc2ccc(Br)cc2/C1=C/c1cc2c([nH]1)CCCC2 [VEGF Receptor 2 Kinase Inhibitor II]
[1]; Well no.=2651
  remaining activity at 3.75 µM: 87.8%
[2]; Well no.=2651
  remaining activity at 1.25 µM: 86%

## CNC(=O)Nc1ccc(-c2nc(N3CC4CCC(C3)O4)c3cnn(C4CCC5(CC4)OCCO5)c3n2)cc1 [WYE-125132]
[1]; Well no.=4641
  remaining activity at 3.75 µM: 104%
[2]; Well no.=4641
  remaining activity at 1.25 µM: 99.8%

## O=C1c2cccc(O)c2C(=O)c2c(O)cc(CO)cc21 [Aloe-emodine]
[1]; Well no.=3156
  remaining activity at 3.75 µM: 102%
[2]; Well no.=3156
  remaining activity at 1.25 µM: 105%
